The source of these data is patent US20150353495A1 (PORTOLA PHARMACEUTICALS, INC., priority 2010, published 2015).

Test [1] deals with T1, JAK3 (Homo sapiens, UniProt P52333).
T1 construct: 5 μl of catalytic domain recombinant Kinase enzyme+Tyr peptide substrate (Invitrogen, CA); purchased Invitrogen
The experiment in a line: Z'-LYTE kinase assay JAK3. It counts as biochemical. In short, it runs like this:
(§1)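 Read-out is FRET fluorescence between coumarin and fluorescein on a Tyr6 peptide, lost when the development protease cleaves unphosphorylated substrate. Kinase reaction used recombinant catalytic domain with ATP, 1 h at room temperature, 1% DMSO.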

In test [2] the target is T2, JAK1 (Homo sapiens, UniProt P23458).
T2 construct: 5 μl of catalytic domain recombinant Kinase enzyme+Tyr peptide substrate (Invitrogen, CA); purchased Invitrogen
The test can be described thus: Z'-LYTE kinase assay JAK1. The class given is biochemical. In short, it runs like this: as §1

The target of test [3] is T3, JAK2 (Homo sapiens, UniProt O60674).
T3 construct: 5 μl of catalytic domain recombinant Kinase enzyme+Tyr peptide substrate (Invitrogen, CA); purchased Invitrogen
The experiment in a line: Z'-LYTE kinase assay JAK2. It counts as biochemical. The gist of the method:
as §1

Test [4] addresses T4, full length active recombinant SYK enzyme (Homo sapiens, UniProt P43405).
T4 construct: full length active recombinant SYK enzyme (Millipore, Calif.); purchased Millipore
The experiment in a line: Inhibition of Syk tyrosine phosphorylation activity (LANCE TR-FRET). The class given is biochemical. From the text: This example illustrates methods for evaluating the compounds of the invention, along with results obtained for such assays. The in vitro and in vivo human Syk activities of the inventive compounds can be determined by various procedures known in the art, such as a test for their ability to inhibit the activity of human plasma Syk. […] The IC50 value is the concentration (in nM) of the compound required to provide 50% inhibition of human Syk proteolytic activity.
An in vitro assay for detecting and measuring inhibition activity against Syk is as follows:
Inhibition of Syk Tyrosine Phosphorylation Activity
Potency of candidate molecules for inhibiting Syk tyrosine phosphorylation activity is assessed by measuring the ability of a test compound to inhibit Syk-mediated tyrosine phosphorylation of a Syk-specific substrate.
SYK tyrosine phosphorylation activity is measured using the LANCE™ Technology developed by Perkin Elmer Life and Analytical Sciences (Boston, Mass.). LANCE™ refers to homogeneous time resolved fluorometry applications using techniques such as time-resolved fluorescence resonance energy transfer assay (TR-FRET) (see generally for procedures in Perkin Elmer Application Note-How to Optimize a Tyrosine Kinase Assay Using Time Resolved Fluorescence-Based LANCE Detection, wwww.perkinelmer.com/lifesciences). The assay principle involves detection of a phosphorylated substrate using energy transfer from a phosphospecific europium-labeled antibody to streptavidin-allophycocyanin as an acceptor.
To test the ability of candidate molecules to inhibit SYK tyrosine phosphorylation activity, molecules are reconstituted in 30% DMSO and serially diluted 1:3 with the final dilution containing DMSO in the absence of the candidate molecule. The final DMSO concentration in the assay is 3%. Kinase assays are performed as a two part reaction. The first reaction is a kinase reaction and which comprises of a candidate molecule, full length active recombinant SYK enzyme (Millipore, Calif.) and biotin-labeled SYK-specific substrate biotin-[…]-OH. The second reaction involves termination of the kinase reaction and the simultaneous addition of the detection reagents-europium-labeled anti-phosphotyrosine reagent (Eu-W1024-PY100, Perkin Elmer, Boston, Mass.) and Streptavidin-Allophycocyanin detection reagent (SA-APC, Prozyme, CA). The kinase reaction is performed in a black U-bottom 96-well microtitre plate. The final reaction volume is 50 μL and contains a final concentration of 1 nM active SYK enzyme, 550 nM SYK-substrate, and 100 nM ATP diluted in a buffer containing 50 mM Tris pH 7.5, 5 mM MgCl2, and 1 mM DTT. The reaction is allowed to proceed for 1 hour at room temperature. The quench buffer contains 100 mM Tris pH 7.5, 300 mM NaCl2, 20 mM EDTA, 0.02% Brij35, and 0.5% BSA. The detection reagents are added to the reaction mixture at the following dilutions-1:500 for Eu-W1024-PY100 and 1:250 for SA-APC. The kinase reaction is terminated by the addition of 50 μL quench buffer containing the detection reagents. […] Detection of the phosphorlated substrate in the absence and presence of inhibitors is measured in the TR-FRET instrument, Analyst HT (Molecular Probes, Sunnyvale, Calif.) and the condition for measurements are set up using CriterionHost Release 2.0 (Molecular Probes, Sunnyvale, Calif.). […] Inhibition of SYK-tyrosine kinase activity is calculated as the maximum response observed in the presence of inhibitor, compared to that in the absence of inhibitor. […]
In general terms: TR-FRET usually uses a lanthanide donor and a delayed reading to cut background.

The test system of test [5] is markers of allogeneic response (interferon gamma). As to conditions: kidney allograft patients; cited from earlier work.

T2 sequence (P23458 875-1153 limits assumed): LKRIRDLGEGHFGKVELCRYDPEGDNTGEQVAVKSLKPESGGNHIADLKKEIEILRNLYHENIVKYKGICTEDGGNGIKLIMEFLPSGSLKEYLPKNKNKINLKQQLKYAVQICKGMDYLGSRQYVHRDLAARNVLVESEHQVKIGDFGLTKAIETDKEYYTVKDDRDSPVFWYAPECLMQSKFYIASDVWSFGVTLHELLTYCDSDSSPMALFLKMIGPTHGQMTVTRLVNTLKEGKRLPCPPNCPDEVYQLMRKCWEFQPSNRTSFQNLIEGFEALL
T1 sequence (P52333 822-1111 limits assumed): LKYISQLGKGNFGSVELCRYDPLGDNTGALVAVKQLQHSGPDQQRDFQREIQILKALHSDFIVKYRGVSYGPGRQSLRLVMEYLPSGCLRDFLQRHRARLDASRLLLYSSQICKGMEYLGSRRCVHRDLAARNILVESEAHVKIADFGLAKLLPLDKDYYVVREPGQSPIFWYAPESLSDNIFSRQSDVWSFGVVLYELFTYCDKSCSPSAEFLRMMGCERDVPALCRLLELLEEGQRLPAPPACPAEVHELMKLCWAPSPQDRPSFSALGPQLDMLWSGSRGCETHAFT
T3 sequence (O60674 849-1124 limits assumed): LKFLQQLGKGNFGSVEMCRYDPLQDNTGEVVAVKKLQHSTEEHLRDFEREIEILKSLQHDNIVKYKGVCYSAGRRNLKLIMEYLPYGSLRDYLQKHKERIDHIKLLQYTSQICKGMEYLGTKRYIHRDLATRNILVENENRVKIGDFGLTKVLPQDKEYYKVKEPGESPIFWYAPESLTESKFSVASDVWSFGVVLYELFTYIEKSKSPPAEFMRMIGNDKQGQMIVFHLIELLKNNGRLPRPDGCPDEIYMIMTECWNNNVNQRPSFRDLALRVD

By IC50 is commonly meant the concentration needed to halve the response being measured. For `CC(=O)N1CCN(c2ccc(Nc3ccc(C(N)=O)c(NC4CCC4)n3)cc2)CC1` [Example 1, 6-(4-(4-acetylpiperazin-1-yl)phenylamino)-2-(cyclobutylamino)nicotinamide], the IC50 in test [1] is 100 to 1000 nM; in test [2], 100 to 1000 nM; in test [3] it was 100 to 1000 nM; in test [4] it was > 1000 nM.
As for `CC(=O)N1CCN(c2ccc(Nc3cc(N[C@H](CO)c4ccccc4)c(C(N)=O)cn3)cc2)CC1` [Example 231], the IC50 in test [1] is 1 to 10 nM; in test [2] it was > 1000 nM; in test [3], 100 to 1000 nM; in test [4] it was > 1000 nM.
As to `C[C@H]1CCN(C(=O)CC#N)C[C@H]1N(C)c1ncnc2[nH]ccc12` [CP-690,550], in test [5], the “markers of allogeneic response (interferon gamma)” value is on record as “can be reduced”.
As for `NC(=O)c1cnc(Nc2cccc(OCCN3CCOCC3)c2)cc1N[C@H](CO)c1ccccc1` [Example 230], the IC50 in test [1] is 1 to 10 nM; in test [2], > 1000 nM; in test [3], 100 to 1000 nM; in test [4], > 1000 nM.
